System: MV-4-11 cells
Assay: Gene expression microarray analysis (Affymetrix PrimeView) and GSEA
Type: cell-based, human
Parameters: RFU PODN (11730768_x_at) / Fold change /veh PODN (11730768_x_at) / RFU LINC00158 (11744669_a_at) / Fold change /veh LINC00158 (11744669_a_at) / RFU DUSP10 (11751237_a_at) / Fold change /veh DUSP10 (11751237_a_at) / RFU ID3 (11757404_x_at) / Fold change /veh ID3 (11757404_x_at) / RFU PLEKHG5 (11737974_s_at) / Fold change /veh PLEKHG5 (11737974_s_at) / RFU LRRC4B (11730491_at) / Fold change /veh LRRC4B (11730491_at) / RFU GIMAP4 (11747438_a_at) / Fold change /veh GIMAP4 (11747438_a_at) / RFU KRT8 (11758183_x_at) / Fold change /veh KRT8 (11758183_x_at) / RFU CNN1 (11734310_a_at) / Fold change /veh CNN1 (11734310_a_at) / RFU VPS37D (11726825_at) / Fold change /veh VPS37D (11726825_at) / RFU C10orf10 (11716522_x_at) / Fold change /veh C10orf10 (11716522_x_at) / RFU KIR2DL2 /// KIR2DL4 /// KIR2DL5A /// KIR2DL5B /// KIR2DS1 /// KIR2DS2 /// KIR2DS3 /// KIR2DS4 /// KIR3DL3 /// KIR3DL3 /// KIR3DS1 (11738374_at) / Fold change /veh KIR2DL2 /// KIR2DL4 /// KIR2DL5A /// KIR2DL5B /// KIR2DS1 /// KIR2DS2 /// KIR2DS3 /// KIR2DS4 /// KIR3DL3 /// KIR3DL3 /// KIR3DS1 (11738374_at) / RFU C1QL1 (11718748_at) / Fold change /veh C1QL1 (11718748_at) / RFU TMPRSS4 (11747572_a_at) / Fold change /veh TMPRSS4 (11747572_a_at) / RFU HAMP (11756126_x_at) / Fold change /veh HAMP (11756126_x_at) / RFU RNFT2 (11725882_a_at) / Fold change /veh RNFT2 (11725882_a_at) / RFU NR4A2 (11747474_a_at) / Fold change /veh NR4A2 (11747474_a_at) / RFU ABCC12 (11746883_a_at) / Fold change /veh ABCC12 (11746883_a_at) / RFU TMEM136 (11760407_x_at) / Fold change /veh TMEM136 (11760407_x_at) / RFU CLDN22 /// WWC2 (11732394_at) / Fold change /veh CLDN22 /// WWC2 (11732394_at) / RFU HLA-DPB1 (11760878_x_at) / Fold change /veh HLA-DPB1 (11760878_x_at) / RFU SPINT1 (11716480_a_at) / Fold change /veh SPINT1 (11716480_a_at) / RFU GAP43 (11754022_s_at) / Fold change /veh GAP43 (11754022_s_at) / RFU A4GNT (11735810_at) / Fold change /veh A4GNT (11735810_at) / RFU PRB3 (11715151_x_at) / Fold change /veh PRB3 (11715151_x_at) / RFU TUBB4B (11761932_at) / Fold change /veh TUBB4B (11761932_at) / RFU CAPN14 (11732068_a_at) / Fold change /veh CAPN14 (11732068_a_at) / RFU TMCC2 (11721928_a_at) / Fold change /veh TMCC2 (11721928_a_at) / RFU IRGQ (11745062_a_at) / Fold change /veh IRGQ (11745062_a_at) / RFU FAM174B (11720279_a_at) / Fold change /veh FAM174B (11720279_a_at) / RFU TMPRSS4 (11748680_a_at) / Fold change /veh TMPRSS4 (11748680_a_at) / RFU FAM212B (11763350_a_at) / Fold change /veh FAM212B (11763350_a_at) / RFU PLEKHG5 (11743358_a_at) / Fold change /veh PLEKHG5 (11743358_a_at) / RFU ZSCAN30 (11745921_a_at) / Fold change /veh ZSCAN30 (11745921_a_at) / RFU CMKLR1 (11741424_a_at) / Fold change /veh CMKLR1 (11741424_a_at) / RFU LOC101060620 /// MAPK8IP1 (11723275_at) / Fold change /veh LOC101060620 /// MAPK8IP1 (11723275_at) / RFU SPTSSB (11747773_x_at) / Fold change /veh SPTSSB (11747773_x_at) / RFU PRSS12 (11739890_at) / Fold change /veh PRSS12 (11739890_at) / RFU BIN1 (11741810_x_at) / Fold change /veh BIN1 (11741810_x_at) / RFU WNT11 (11732464_a_at) / Fold change /veh WNT11 (11732464_a_at) / RFU C10orf10 (11716521_a_at) / Fold change /veh C10orf10 (11716521_a_at) / RFU C5orf56 (11738089_at) / Fold change /veh C5orf56 (11738089_at) / RFU CYB561 (11721691_x_at) / Fold change /veh CYB561 (11721691_x_at) / RFU ANKRD19P (11752326_a_at) / Fold change /veh ANKRD19P (11752326_a_at) / RFU OR2T12 /// OR2T33 /// OR2T8 (11738714_s_at) / Fold change /veh OR2T12 /// OR2T33 /// OR2T8 (11738714_s_at) / RFU VCAN (11748164_a_at) / Fold change /veh VCAN (11748164_a_at) / RFU JSRP1 (11732532_at) / Fold change /veh JSRP1 (11732532_at) / RFU KRTAP10-11 (11738290_x_at) / Fold change /veh KRTAP10-11 (11738290_x_at) / RFU MYO3A (11730013_a_at) / Fold change /veh MYO3A (11730013_a_at) / RFU EBF3 (11725865_a_at) / Fold change /veh EBF3 (11725865_a_at) / RFU CAMK2N1 (11719241_x_at) / Fold change /veh CAMK2N1 (11719241_x_at) / RFU C5orf56 (11738088_a_at) / Fold change /veh C5orf56 (11738088_a_at) / RFU OLFML3 (11715873_a_at) / Fold change /veh OLFML3 (11715873_a_at) / RFU LOC100653217 /// NTM (11731650_a_at) / Fold change /veh LOC100653217 /// NTM (11731650_a_at) / RFU MAPK11 (11762145_a_at) / Fold change /veh MAPK11 (11762145_a_at) / RFU FIZ1 (11724087_x_at) / Fold change /veh FIZ1 (11724087_x_at) / RFU OASL (11726364_x_at) / Fold change /veh OASL (11726364_x_at) / RFU SOX15 (11748057_x_at) / Fold change /veh SOX15 (11748057_x_at) / RFU CD79A (11719716_a_at) / Fold change /veh CD79A (11719716_a_at) / RFU HIST1H1D (11736915_at) / Fold change /veh HIST1H1D (11736915_at) / RFU CASKIN2 (11723855_a_at) / Fold change /veh CASKIN2 (11723855_a_at) / RFU LOC730098 (11760151_x_at) / Fold change /veh LOC730098 (11760151_x_at) / RFU OR4N2 (11742367_at) / Fold change /veh OR4N2 (11742367_at) / RFU PRRT2 (11749266_a_at) / Fold change /veh PRRT2 (11749266_a_at) / RFU SNX32 (11753110_a_at) / Fold change /veh SNX32 (11753110_a_at) / RFU CDHR5 (11726645_a_at) / Fold change /veh CDHR5 (11726645_a_at) / RFU RCAN1 (11760418_a_at) / Fold change /veh RCAN1 (11760418_a_at) / RFU FAM167A (11723789_a_at) / Fold change /veh FAM167A (11723789_a_at) / RFU FAM26E (11764081_at) / Fold change /veh FAM26E (11764081_at) / RFU ISYNA1 (11749810_s_at) / Fold change /veh ISYNA1 (11749810_s_at) / RFU ACY1 (11761880_at) / Fold change /veh ACY1 (11761880_at) / RFU 11764098_at / Fold change /veh 11764098_at / RFU SAMD14 (11745864_x_at) / Fold change /veh SAMD14 (11745864_x_at) / RFU NPB (11741838_a_at) / Fold change /veh NPB (11741838_a_at) / RFU TMPRSS6 (11731388_a_at) / Fold change /veh TMPRSS6 (11731388_a_at) / RFU KRTAP10-2 (11738614_at) / Fold change /veh KRTAP10-2 (11738614_at) / RFU ARHGAP8 /// PRR5-ARHGAP8 (11727945_x_at) / Fold change /veh ARHGAP8 /// PRR5-ARHGAP8 (11727945_x_at) / RFU KRTAP5-7 /// NADSYN1 (11734609_at) / Fold change /veh KRTAP5-7 /// NADSYN1 (11734609_at) / RFU RASL12 (11751679_a_at) / Fold change /veh RASL12 (11751679_a_at) / RFU CDKN2B (11736163_a_at) / Fold change /veh CDKN2B (11736163_a_at) / RFU PRF1 (11729649_at) / Fold change /veh PRF1 (11729649_at) / RFU, ZNF638 /// ZNF638-IT1 / Fold change vs veh, ZNF638 /// ZNF638-IT1 / RFU, PANK3 / Fold change vs veh, PANK3 / RFU, SH3YL1 / Fold change vs veh, SH3YL1 / RFU, ZEB2 / Fold change vs veh, ZEB2 / RFU, NRIP1 / Fold change vs veh, NRIP1 / RFU, PTTG1IP / Fold change vs veh, PTTG1IP / RFU, CAPN2 / Fold change vs veh, CAPN2 / RFU, MED14 / Fold change vs veh, MED14 / RFU, SNORA58 / Fold change vs veh, SNORA58 / RFU, C1orf63 / Fold change vs veh, C1orf63 / RFU, LRRFIP1 / Fold change vs veh, LRRFIP1 / RFU, NDUFAF7 / Fold change vs veh, NDUFAF7 / RFU, SLC12A2 / Fold change vs veh, SLC12A2 / RFU, IBTK / Fold change vs veh, IBTK / RFU, ESF1 / Fold change vs veh, ESF1 / Fold change vs veh, TMEM50B / RFU, TAOK1 / Fold change vs veh, TAOK1 / RFU, ACBD3 / Fold change vs veh, ACBD3 / RFU, TMA16 / Fold change vs veh, TMA16 / RFU, RWDD3 / Fold change vs veh, RWDD3 / RFU, BCAT1 / Fold change vs veh, BCAT1 / RFU, EDEM3 / Fold change vs veh, EDEM3 / RFU, TMEM33 / Fold change vs veh, TMEM33 / RFU, WDR75 / Fold change vs veh, WDR75 / RFU, AHCTF1 / Fold change vs veh, AHCTF1 / RFU, TFRC / Fold change vs veh, TFRC / RFU, ZDHHC17 / Fold change vs veh, ZDHHC17 / RFU, NOM1 / Fold change vs veh, NOM1 / RFU, ARL8B / Fold change vs veh, ARL8B / RFU, ZBTB11 / Fold change vs veh, ZBTB11 / RFU, TAMM41 / Fold change vs veh, TAMM41 / RFU, KIAA1704 /// LOC100996395 / Fold change vs veh, KIAA1704 /// LOC100996395 / RFU, ING1 / Fold change vs veh, ING1 / RFU, TRMT61B / Fold change vs veh, TRMT61B / RFU, FUBP3 / Fold change vs veh, FUBP3 / RFU, TP53 / Fold change vs veh, TP53 / RFU, TNKS2 / Fold change vs veh, TNKS2 / RFU, ZFP14 / Fold change vs veh, ZFP14 / RFU, ACTR2 / Fold change vs veh, ACTR2 / RFU, PPP3R1 / Fold change vs veh, PPP3R1 / RFU, PIK3R1 / Fold change vs veh, PIK3R1 / RFU, HNRNPA1 / Fold change vs veh, HNRNPA1 / RFU, RNF170 / Fold change vs veh, RNF170 / RFU, ZNF28 / Fold change vs veh, ZNF28 / RFU, RNGTT / Fold change vs veh, RNGTT / RFU, OGT / Fold change vs veh, OGT / RFU, BRD1 / Fold change vs veh, BRD1 / RFU, MARS / Fold change vs veh, MARS / RFU, ZNF655 / Fold change vs veh, ZNF655 / RFU, FAHD1 / Fold change vs veh, FAHD1 / RFU, BDP1 / Fold change vs veh, BDP1 / RFU, LRRCC1 / Fold change vs veh, LRRCC1 / RFU, ARID1A / Fold change vs veh, ARID1A / RFU, ZNF146 / Fold change vs veh, ZNF146 / RFU, ZNF330 / Fold change vs veh, ZNF330 / RFU, GPN3 / Fold change vs veh, GPN3 / RFU, C9orf123 / Fold change vs veh, C9orf123 / RFU, N4BP2L2 / Fold change vs veh, N4BP2L2 / RFU, ARFIP1 / Fold change vs veh, ARFIP1 / RFU, FAM179B / Fold change vs veh, FAM179B / RFU, BCL10 / Fold change vs veh, BCL10 / RFU, UHRF1BP1L / Fold change vs veh, UHRF1BP1L / RFU, BET1 / Fold change vs veh, BET1 / RFU, CNOT2 / Fold change vs veh, CNOT2 / RFU, ZNF268 / Fold change vs veh, ZNF268 / Fold change vs veh, ZNF507 / RFU, DGCR2 / Fold change vs veh, DGCR2 / RFU, WDSUB1 / Fold change vs veh, WDSUB1 / Fold change vs veh, HSP90B1 /// MIR3652 / RFU, ADSS / Fold change vs veh, ADSS / RFU, GK / Fold change vs veh, GK / RFU, ZNF148 / Fold change vs veh, ZNF148 / RFU, TAF9 / Fold change vs veh, TAF9 / RFU, SLC1A5 / Fold change vs veh, SLC1A5 / RFU, SLMO2 / Fold change vs veh, SLMO2 / RFU, ABCC4 / Fold change vs veh, ABCC4 / RFU, LOC101060439 /// RAP1B / Fold change vs veh, LOC101060439 /// RAP1B / RFU, RFX7 / Fold change vs veh, RFX7 / RFU, GTPBP10 / Fold change vs veh, GTPBP10 / RFU, CNEP1R1 / Fold change vs veh, CNEP1R1 / RFU, BIVM-ERCC5 /// ERCC5 / Fold change vs veh, BIVM-ERCC5 /// ERCC5 / RFU, ILF3 / Fold change vs veh, ILF3 / RFU 11762660_at / Fold change /veh 11762660_at / RFU VCAN (11757783_s_at) / Fold change /veh VCAN (11757783_s_at) / RFU DDX43 (11728927_at) / Fold change /veh DDX43 (11728927_at) / RFU KRT8 (11758188_x_at) / Fold change /veh KRT8 (11758188_x_at) / RFU NKD1 (11759106_at) / Fold change /veh NKD1 (11759106_at) / RFU SRD5A1 (11742802_a_at) / Fold change /veh SRD5A1 (11742802_a_at) / RFU TPSAB1 /// TPSB2 (11721975_s_at) / Fold change /veh TPSAB1 /// TPSB2 (11721975_s_at) / RFU GSTM3 (11746129_a_at) / Fold change /veh GSTM3 (11746129_a_at) / RFU IL23R (11737362_x_at) / Fold change /veh IL23R (11737362_x_at) / RFU TMEM51 (11727254_a_at) / Fold change /veh TMEM51 (11727254_a_at) / RFU PIWIL2 (11732686_x_at) / Fold change /veh PIWIL2 (11732686_x_at) / RFU ORM1 (11744905_x_at) / Fold change /veh ORM1 (11744905_x_at) / RFU CCDC152 (11743942_at) / Fold change /veh CCDC152 (11743942_at) / RFU ECM1 (11717891_a_at) / Fold change /veh ECM1 (11717891_a_at) / RFU IL23R (11748794_a_at) / Fold change /veh IL23R (11748794_a_at) / RFU TNFAIP8L3 (11732012_x_at) / Fold change /veh TNFAIP8L3 (11732012_x_at) / RFU MBOAT4 (11741988_at) / Fold change /veh MBOAT4 (11741988_at) / RFU 11764193_at / Fold change /veh 11764193_at / RFU TMEM53 (11763286_at) / Fold change /veh TMEM53 (11763286_at) / RFU MAGEB2 (11727129_at) / Fold change /veh MAGEB2 (11727129_at) / RFU TMEM200A (11744735_a_at) / Fold change /veh TMEM200A (11744735_a_at) / RFU CCDC152 (11751479_a_at) / Fold change /veh CCDC152 (11751479_a_at) / RFU FAM211A (11726209_a_at) / Fold change /veh FAM211A (11726209_a_at) / RFU RGS16 (11746705_a_at) / Fold change /veh RGS16 (11746705_a_at) / RFU VCAN (11755009_s_at) / Fold change /veh VCAN (11755009_s_at) / RFU RHOB (11743442_s_at) / Fold change /veh RHOB (11743442_s_at) / RFU RGS16 (11720943_a_at) / Fold change /veh RGS16 (11720943_a_at) / RFU RGS16 (11720944_at) / Fold change /veh RGS16 (11720944_at) / RFU, VPS4B / Fold change vs veh, VPS4B / RFU, CREB1 / Fold change vs veh, CREB1 / RFU, DNAJC13 / Fold change vs veh, DNAJC13 / RFU, GNAQ / Fold change vs veh, GNAQ / RFU, CDK5R1 / Fold change vs veh, CDK5R1 / RFU, ZRANB3 / Fold change vs veh, ZRANB3 / RFU, CUL4A / Fold change vs veh, CUL4A / RFU, CCNY / Fold change vs veh, CCNY / RFU, UFL1 / Fold change vs veh, UFL1 / RFU, COG3 / Fold change vs veh, COG3 / RFU, DIAPH2 / Fold change vs veh, DIAPH2 / RFU, SKA2 / Fold change vs veh, SKA2 / RFU, AFF3 / Fold change vs veh, AFF3 / RFU, LMF1 / Fold change vs veh, LMF1 / RFU, IPO11 / Fold change vs veh, IPO11 / RFU, DFFB / Fold change vs veh, DFFB / RFU, FOXP1 / Fold change vs veh, FOXP1 / RFU, CARD8 / Fold change vs veh, CARD8 / RFU, STRN3 / Fold change vs veh, STRN3 / RFU, ADK / Fold change vs veh, ADK / RFU, RASSF2 / Fold change vs veh, RASSF2 / RFU, WIPF1 / Fold change vs veh, WIPF1 / RFU, LARP1B / Fold change vs veh, LARP1B / RFU, RASA1 / Fold change vs veh, RASA1 / RFU, RB1 / Fold change vs veh, RB1 / RFU, PPFIA1 / Fold change vs veh, PPFIA1 / RFU, MAT2A / Fold change vs veh, MAT2A / RFU, CCT5 / Fold change vs veh, CCT5 / RFU, WDR92 / Fold change vs veh, WDR92 / RFU, CUX1 / Fold change vs veh, CUX1 / RFU, TTC7A / Fold change vs veh, TTC7A / RFU, TMEM135 / Fold change vs veh, TMEM135 / RFU, DEPTOR / Fold change vs veh, DEPTOR / RFU, CPM / Fold change vs veh, CPM / RFU, DNAJB6 / Fold change vs veh, DNAJB6 / RFU, CACNA2D3 / Fold change vs veh, CACNA2D3 / RFU, DTX4 / Fold change vs veh, DTX4 / RFU, TFCP2 / Fold change vs veh, TFCP2 / RFU, GMCL1 /// GMCL1P1 / Fold change vs veh, GMCL1 /// GMCL1P1 / RFU, AEBP2 / Fold change vs veh, AEBP2 / RFU, SNHG1 /// SNORD22 /// SNORD25 /// SNORD26 /// SNORD27 /// SNORD28 /// SNORD29 /// SNORD31 / Fold change vs veh, SNHG1 /// SNORD22 /// SNORD25 /// SNORD26 /// SNORD27 /// SNORD28 /// SNORD29 /// SNORD31 / Fold change (Aza/veh), C12orf56 (ProbeSet 11735607_a_at) / Fold change (ACY-1035/veh), C12orf56 (ProbeSet 11735607_a_at) / Fold change (Aza/veh), FGFR1OP (ProbeSet 11751329_s_at) / Fold change (ACY-1035/veh), FGFR1OP (ProbeSet 11751329_s_at) / Fold change (Aza/veh), VPS36 (ProbeSet 11739960_a_at) / Fold change (ACY-1035/veh), VPS36 (ProbeSet 11739960_a_at) / RFU SYPL1 (11715823_x_at) / Fold change /veh SYPL1 (11715823_x_at) / RFU IGFBP7 (11715501_s_at) / Fold change /veh IGFBP7 (11715501_s_at) / RFU REEP3 (11722064_at) / Fold change /veh REEP3 (11722064_at) / RFU IGLL1 (11728026_x_at) / Fold change /veh IGLL1 (11728026_x_at): dose or concentration left out as unconfirmed
Conditions: ProbeSet 11758779_at; LIST B

With Nc1ncn([C@@H]2O[C@H](CO)[C@@H](O)[C@H]2O)c(=O)n1 [azacitidine] the “Fold change vs veh, TMEM50B” value was 0.94.
